A value given as a limit tells only on which side of the number the result lay.

The values that follow come from US20200247800A1, “SUBSTITUTED BICYCLIC HETEROCYCLIC COMPOUNDS AS NADPH OXIDASE INHIBITORS” (Glenmark Pharmaceuticals S.A., priority 2017, published 2020).

The test concerns the target T1, human NOX4 (Homo sapiens, UniProt Q9NPH5).
T1 construct: expressed in transfected cells; membrane fraction used
T1 sequence (Q9NPH5 1-578): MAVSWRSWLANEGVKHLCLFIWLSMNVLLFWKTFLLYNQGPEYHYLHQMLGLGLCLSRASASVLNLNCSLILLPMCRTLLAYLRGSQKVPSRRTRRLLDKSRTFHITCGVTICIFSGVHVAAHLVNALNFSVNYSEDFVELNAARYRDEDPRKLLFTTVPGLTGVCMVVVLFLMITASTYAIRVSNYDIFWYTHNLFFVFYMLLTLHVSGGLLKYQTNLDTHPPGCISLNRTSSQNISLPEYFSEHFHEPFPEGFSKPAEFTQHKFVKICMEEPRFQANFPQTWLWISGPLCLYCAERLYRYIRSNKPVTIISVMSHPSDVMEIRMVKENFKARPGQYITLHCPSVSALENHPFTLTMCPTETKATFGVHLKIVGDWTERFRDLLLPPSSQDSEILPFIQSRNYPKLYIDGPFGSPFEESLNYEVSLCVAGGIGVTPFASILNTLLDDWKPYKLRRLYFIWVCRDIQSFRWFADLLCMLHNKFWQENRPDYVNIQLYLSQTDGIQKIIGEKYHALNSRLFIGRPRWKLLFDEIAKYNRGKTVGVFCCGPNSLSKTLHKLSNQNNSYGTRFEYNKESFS
T1 sequence (P13498 1-195 partner): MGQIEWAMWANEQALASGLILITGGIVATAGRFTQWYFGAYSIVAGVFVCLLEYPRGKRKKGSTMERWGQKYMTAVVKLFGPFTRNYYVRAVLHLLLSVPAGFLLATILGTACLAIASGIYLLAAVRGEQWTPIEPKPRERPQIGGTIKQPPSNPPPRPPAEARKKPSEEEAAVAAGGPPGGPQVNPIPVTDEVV
Briefly: Cell free membrane based in vitro NOX4 assay: H2O2 production by membranes expressing human NOX4, measured with Amplex Red. In kind it is biochemical. To be noted: for inhibition at 1 µM: 1.0 μM compound, read-out: Percentage inhibition at 1.0 μM; for inhibition at 10 µM: 10.0 μM compound, read-out: Percentage inhibition at 10.0 μM; for IC50: class symbols. Summed up: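 IC50 came from concentration-response curves fitted as % of the inhibitor-free maximum. H2O2 formation was monitored for 10 min via Amplex Red/HRP fluorescence (544/590 nm) after NADPH start. Membranes from a stable hNOX4/HEK line had 20 min exposure to inhibitor beforehand at pH 7.4.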

For the compound `O=c1c(O)c(-c2c(F)cccc2F)[nH]c2c1c(C1CCOCC1)nn2-c1ccc(F)cc1` [Example 204, 6-(2,6-Difluorophenyl)-1-(4-fluorophenyl)-5-hydroxy-3-(tetrahydro-2H-pyran-4-yl)-1H-pyrazolo[3,4-b]pyridin-4(7H)-one], the inhibition at 1 µM is 95.2%, the inhibition at 10 µM worked out at 99.7% and the IC50 lay in the range of 100 to 150 nM.

For `Cn1nc(C2CCN(S(C)(=O)=O)CC2)c2c(=O)c(O)c(-c3ccccc3Cl)[nH]c21` [Example 194, 6-(2-chlorophenyl)-5-hydroxy-1-methyl-3-(1-(methylsulfonyl)piperidin-4-yl)-1H-pyrazolo[3,4-b]pyridin-4(7H)-one], the inhibition at 1 µM is 98.3%, the inhibition at 10 µM worked out at 96% and the half-maximal inhibitory concentration (IC50) lay within 50 to 100 nM.

On to `Cn1nc(C(F)(F)F)c2c(=O)c(O)c(-c3ccccc3F)[nH]c21` [Example 41, 6-(2-Fluorophenyl)-5-hydroxy-1-methyl-3-(trifluoromethyl)-1,7-dihydro-4H-pyrazolo[3,4-b]pyridin-4-one], for which the inhibition at 1 µM turned out to be 77.7%, the inhibition at 10 µM amounted to 87.6% and the IC50 was over 150 nM.

As to `CCn1nc(C)c2c(=O)c(O)c(-c3cccc(F)c3F)[nH]c21` [Example 95, 6-(2,3-Difluorophenyl)-1-ethyl-5-hydroxy-3-methyl-1H-pyrazolo[3,4-b]pyridin-4(7H)-one], the inhibition at 1 µM worked out at 71.1%, the inhibition at 10 µM turned out to be 62.6% and the IC50 was over 150 nM.

With `COc1ccc(-c2[nH]c3c(c(C)nn3-c3ccc(F)c(F)c3)c(=O)c2O)c(F)c1` [Example 39, 1-(3,4-Difluorophenyl)-6-(2-fluoro-4-methoxyphenyl)-5-hydroxy-3-methyl-1,7-dihydro-4H-pyrazolo[3,4-b]pyridin-4-one], the inhibition at 1 µM was 85%, the inhibition at 10 µM stood at 87.3% and the IC50 was 100 to 150 nM.

With `Cc1nn(C)c2[nH]c(-c3ccc(Cl)c(C(F)(F)F)c3)c(O)c(=O)c12` [Example 24, 6-[3-Chloro-3-(trifluoromethyl)phenyl]-5-hydroxy-1,3-dimethyl-1,7-dihydro-4H-pyrazolo[3,4-b]pyridin-4-one], the inhibition at 1 µM came to 88.9% and the IC50 was over 150 nM.

For the compound `CCn1nc(C(F)(F)F)c2c(=O)c(O)c(-c3ccccc3Cl)[nH]c21` [Example 109, 6-(2-Chlorophenyl)-1-ethyl-5-hydroxy-3-(trifluoromethyl)-1H-pyrazolo[3,4-b]pyridin-4(7H)-one], the inhibition at 1 µM is 60.5%, the inhibition at 10 µM came out at 82.1% and the half-inhibitory concentration (IC50) is over 150 nM.

With `Cn1nc(C(F)(F)F)c2c(=O)c(O)c(-c3ccc(Cl)cc3)[nH]c21` [Example 43, 6-(4-Chlorophenyl)-5-hydroxy-1-methyl-3-(trifluoromethyl)-1,7-dihydro-4H-pyrazolo[3,4-b]pyridin-4-one], the inhibition at 1 µM amounted to 90.6%, the inhibition at 10 µM was found to be 97.9% and the IC50 fell in the range of 100 to 150 nM.

Consider `CCc1nn(C2CC2)c2[nH]c(-c3c(F)cccc3F)c(O)c(=O)c12` [Example 140, 1-Cyclopropyl-6-(2,6-difluorophenyl)-3-ethyl-5-hydroxy-1H-pyrazolo[3,4-b]pyridin-4(7H)-one], for which the inhibition at 1 µM is 100%, the inhibition at 10 µM worked out at 100% and the IC50 lay within 50 to 100 nM.

In the case of `CCc1nn(CCO)c2[nH]c(-c3c(F)cccc3F)c(O)c(=O)c12` [Example 203, 6-(2,6-Difluorophenyl)-3-ethyl-5-hydroxy-1-(2-hydroxyethyl)-1H-pyrazolo[3,4-b]pyridin-4(7H)-one], the inhibition at 1 µM was determined as 82.5%, the inhibition at 10 µM turned out to be 77.7% and the IC50 fell in the range of 50 to 100 nM.

Regarding `CCc1nn(CCN2CCN(CC)CC2)c2[nH]c(-c3ccccc3Cl)c(O)c(=O)c12` [Example 173, 6-(2-Chlorophenyl)-3-ethyl-1-(2-(4-ethylpiperazin-1-yl)ethyl)-5-hydroxy-1H-pyrazolo[3,4-b]pyridin-4(7H)-one], the inhibition at 1 µM came out at 76.1%, the inhibition at 10 µM was 69.7% and the 50% inhibitory concentration (IC50) was over 150 nM.

As to `Cc1nn(C2CC2)c2[nH]c(-c3c(F)cccc3F)c(O)c(=O)c12` [Example 87, 1-Cyclopropyl-6-(2,6-difluorophenyl)-5-hydroxy-3-methyl-1H-pyrazolo[3,4-b]pyridin-4(7H)-one], the inhibition at 1 µM was 78.2%, the inhibition at 10 µM is 88.5% and the IC50 lay in the range of 100 to 150 nM.

Turning to `Cc1nn(C2CCC2)c2[nH]c(-c3ccccc3Cl)c(O)c(=O)c12` [Example 144, 6-(2-Chlorophenyl)-1-cyclobutyl-5-hydroxy-3-methyl-1H-pyrazolo[3,4-b]pyridin-4(7H)-one], the inhibition at 1 µM turned out to be 83.6%, the inhibition at 10 µM was 63.8% and the IC50 fell in the range of 50 to 100 nM.

With `COc1ccc(-c2[nH]c3c(c(C)nn3C)c(=O)c2O)c(Cl)c1` [Example 18, 6-(2-Chloro-4-methoxyphenyl)-5-hydroxy-1,3-dimethyl-1,7-dihydro-4H-pyrazolo[3,4-b]pyridin-4-one], the inhibition at 1 µM was found to be 78.6%, the inhibition at 10 µM is 78.4% and the IC50 was in the range of 100 to 150 nM.

As for `Cc1nn(C)c2[nH]c(-c3ccc(C(F)(F)F)cc3F)c(O)c(=O)c12` [Example 21, 6-[2-Fluoro-4-(trifluoromethyl)phenyl]-5-hydroxy-1,3-dimethyl-1,7-dihydro-4H-pyrazolo[3,4-b]pyridin-4-one], the inhibition at 1 µM was 100%, the inhibition at 10 µM is 100% and the IC50 was over 150 nM.

In the case of `Cn1nc(C(F)(F)F)c2c(=O)c(O)c(-c3cc(CNC(=O)C(C)(C)C)ccc3F)[nH]c21` [Example 135, N-(4-Fluoro-3-(5-hydroxy-1-methyl-4-oxo-3-(trifluoromethyl)-4,7-dihydro-1H-pyrazolo[3,4-b]pyridin-6-yl)benzyl)pivalamide], the inhibition at 1 µM came to 71%, the inhibition at 10 µM came out at 90.7% and the IC50 is over 150 nM.

With `CCn1nc(C)c2c(=O)c(O)c(-c3ccccc3F)[nH]c21` [Example 107, 1-Ethyl-6-(2-fluorophenyl)-5-hydroxy-3-methyl-1,7-dihydro-4H-pyrazolo[3,4-b]pyridin-4-one], the inhibition at 1 µM is 70.8%, the inhibition at 10 µM is 61.2% and the IC50 was over 150 nM.

`CN(C)CCn1nc(C(F)(F)F)c2c(=O)c(O)c(-c3ccccc3Cl)[nH]c21` [Example 154, 6-(2-chlorophenyl)-1-(2-(dimethylamino)ethyl)-5-hydroxy-3-(trifluoromethyl)-1H-pyrazolo[3,4-b]pyridin-4(7H)-one]: the inhibition at 1 µM amounted to 99.6%, the inhibition at 10 µM worked out at 100% and the IC50 was over 150 nM.

For the compound `Cn1nc(C(F)(F)F)c2c(=O)c(O)c(-c3cc(Cl)ccc3Cl)[nH]c21` [Example 50, 6-(2,5-Dichlorophenyl)-5-hydroxy-1-methyl-3-(trifluoromethyl)-1,7-dihydro-4H-pyrazolo[3,4-b]pyridin-4-one], the inhibition at 1 µM amounted to 89.3%, the inhibition at 10 µM was determined as 99.5% and the IC50 fell in the range of 100 to 150 nM.
